In patent US7998950B2, “Antiviral compounds” (Gilead Sciences, Inc., priority 2008, dated 2011):

Test system: HIV-IIIb
Assay: Antiviral assay in MT-2 cells infected with HIV-IIIb
Format: cell-based
Conditions: Human immunodeficiency virus 1, IIIB, MT2, 120 h, MT-2 cells infected with HIV-IIIb, m.o.i. 0.01, 10% FBS, 5 days at 37° C., CellTiter-Glo chemiluminescence; read-out: EC50 in MT-2 cells

EC50 [nM] | SMILES
4 | N#CCCNC(=O)c1c(O)c2ncc(Cc3ccc(F)cc3)c3c2n(c1=O)CC(F)(F)CN3 [A-9]
4 | COCCNC(=O)c1c(O)c2ncc(Cc3ccc(F)cc3)c3c2n(c1=O)CC(F)(F)CN3 [A-10]
3.5 | O=C(NCC1(O)CC1)c1c(O)c2ncc(Cc3ccc(F)cc3)c3c2n(c1=O)CC(F)(F)CN3 [A-11]
3 | CCNC(=O)c1c(O)c2ncc(Cc3ccc(F)cc3)c3c2n(c1=O)CC(F)(F)CN3 [A-12]
6.5 | C[C@@H](CO)NC(=O)c1c(O)c2ncc(Cc3ccc(F)cc3)c3c2n(c1=O)CC(F)(F)CN3 [A-13]
7 | CC(C)(O)CNC(=O)c1c(O)c2ncc(Cc3ccc(F)cc3)c3c2n(c1=O)CC(F)(F)CN3 [A-14]
4 | O=C(NCCCO)c1c(O)c2ncc(Cc3ccc(F)cc3)c3c2n(c1=O)CC(F)(F)CN3 [A-15]
2.5 | N#CCCCNC(=O)c1c(O)c2ncc(Cc3ccc(F)cc3)c3c2n(c1=O)CC(F)(F)CN3 [A-17]
7 | O=C(NC1CC(O)C1)c1c(O)c2ncc(Cc3ccc(F)cc3)c3c2n(c1=O)CC(F)(F)CN3 (centres unmarked) [A-18]
5.5 | CNC(=O)c1c(O)c2ncc(Cc3ccc(F)cc3)c3c2n(c1=O)CC(CO)O3 (centres unmarked) [A-25]
16 | O=C(NCCO)c1c(O)c2ncc(Cc3ccc(F)cc3)c3c2n(c1=O)CC(CO)O3 (centres unmarked) [A-26]
4 | COCCNC(=O)c1c(O)c2ncc(Cc3ccc(F)cc3)c3c2n(c1=O)CC(CO)O3 (centres unmarked) [A-27]
51 | O=C(NCCCN1CCCC1)c1c(O)c2ncc(Cc3ccc(F)cc3)c3c2n(c1=O)CC(CO)O3 (centres unmarked) [A-28]
1.5 | COCC1Cn2c(=O)c(C(=O)NCCO)c(O)c3ncc(Cc4ccc(F)cc4)c(c32)O1 (centres unmarked) [A-31]
5.7 | CNC(=O)c1c(O)c2ncc(Cc3ccc(F)cc3)c3c2n(c1=O)CC(C(=O)N(C)C)O3 (centres unmarked) [A-35]
6.8 | CNC(=O)c1c(O)c2ncc(Cc3ccc(F)cc3)c3c2n(c1=O)C[C@H](C(=O)NC)O3 [A-50]
6.3 | CNC(=O)c1c(O)c2ncc(Cc3ccc(F)cc3)c3c2n(c1=O)C[C@@H](C(=O)NC)O3 [A-65]
1.7 | CNC(=O)c1c(O)c2ncc(Cc3ccc(F)cc3)c3c2n(c1=O)C[C@@H](CO)O3 [A-67]
4 | CNC(=O)c1c(O)c2ncc(Cc3ccc(F)cc3)c3c2n(c1=O)C[C@H](CO)O3 [A-69]
8 | CNC(=O)C1=Cn2c(=O)c(C(=O)NC)c(O)c3ncc(Cc4ccc(F)cc4)c(c32)O1 [A-82]
37 | CNC(=O)c1c(O)c2ncc(Cc3ccc(F)cc3)c3c2n(c1=O)C=C(C(=O)N1CCOCC1)O3 [A-83]
4 | CNC(=O)c1c(O)c2ncc(Cc3ccc(F)cc3)c3c2n(c1=O)C=C(C(=O)NC1CC1)O3 [A-85]
3.6 | CNC(=O)C1=Cn2c(=O)c(C(=O)NCCOC)c(O)c3ncc(Cc4ccc(F)cc4)c(c32)O1 [A-87]
18 | CNC(=O)C1=Cn2c(=O)c(C(=O)NCCC#N)c(O)c3ncc(Cc4ccc(F)cc4)c(c32)O1 [A-88]
23 | CNC(=O)C1=Cn2c(=O)c(C(=O)NCCO)c(O)c3ncc(Cc4ccc(F)cc4)c(c32)O1 [A-89]
2.9 | CCNC(=O)C1=Cn2c(=O)c(C(=O)NC)c(O)c3ncc(Cc4ccc(F)cc4)c(c32)O1 [A-90]
21 | CNC(=O)c1c(O)c2ncc(Cc3ccc(F)cc3)c3c2n(c1=O)C=C(C(=O)N1CC(F)(F)C1)O3 [A-92]
49 | CNC(=O)c1c(O)c2ncc(Cc3ccc(F)cc3)c3c2n(c1=O)C=C(C(=O)NC(CO)CO)O3 [A-94]
10 | CCN(CC)C(=O)C1=Cn2c(=O)c(C(=O)NC)c(O)c3ncc(Cc4ccc(F)cc4)c(c32)O1 [Example 103]

Same assay, conditions: Human immunodeficiency virus 1, IIIB, MT2, 120 h, read-out: EC50 in MT-2 cells (nM)

SMILES | EC50 [nM]
CNC(=O)c1c(O)c2ncc(Cc3ccc(F)cc3)c3c2n(c1=O)C=C(C(=O)N(C)C)O3 [A-81] | 10.5

Same assay, conditions: MT-2 cells infected with HIV-IIIb, m.o.i. 0.01, 10% FBS, 5 days at 37° C., CellTiter-Glo chemiluminescence; read-out: EC50 in MT-2 cells

EC50 [nM] | SMILES
10 | CCN(CC)C(=O)C1=Cn2c(=O)c(C(=O)NC)c(O)c3ncc(Cc4ccc(F)cc4)c(c32)O1 [A-91]
7.1 | CNC(=O)c1c(O)c2ncc(Cc3ccc(F)cc3)c3c2n(c1=O)CC(CO)(CO)O3 [A-109]
